From US20230130103A1, “TARGETED PHARMACOLOGICAL THERAPEUTICS IN UVEAL MELANOMA” (Washington University, priority 2017, published 2023) come the findings set out here.

Starred links: 1 amine or outer side, 2 acyl side, 3 side chain; linkers in the order of their positions; H or OH if unused. Positions of bridges follow the written chain, without caps; N, C: chain ends. Non-standard residues stand in square brackets, D forms with d. Residues, ends and D or L forms follow the SMILES beside them. *: point of attachment. Leu(3R-OH,Nα-propionyl) = CCC(=O)N[C@H](C(=O)*)[C@H](O)C(C)C; X1 = CC(C)[C@@H](O[*:3])[C@H](N[*:1])C(=O)[*:2]; X2 = CC(C)[C@H](O[*:3])[C@@H](N[*:1])C(=O)[*:2]; NMeaThr = CN[C@H](C(=O)O)[C@H](C)O; dPhLac = O=C(O)[C@H](O)Cc1ccccc1; NMeA = CN[C@@H](C)C(=O)O; NMeDha = C=C(NC)C(=O)O

Data set [1] has as its system Gαi/q(R54K). The data set can be described thus: In vitro nucleotide exchange (BODIPY-GTPγS fluorescence). The format is biochemical. Conditions: Gαi/q(R54K) vs Gαi/q.
Data set [2] can be described thus: Retina structure (preliminary data). The text has this: In this example we will determine whether FR has potential to provide vision sparing therapy for primary (ocular) UM tumors. […] Based on our preliminary studies of UM cells in culture, intravitreal injection might be therapeutically beneficial by inhibiting tumor growth, promoting apoptosis, and/or pushing tumor re-differentiation toward melanocytic phenotypes less likely to metastasize. […] Our second priority is to determine whether FR administered systemically could provide therapeutic benefit for metastatic UM tumors.

The test system of data set [3] is Gαi/q. The data set can be described thus: In vitro nucleotide exchange (BODIPY-GTPγS fluorescence). In kind it is biochemical. The settings on record: FIG. 2B.
The test system of data set [4] is Mel202 UM cells. In words: UM cell viability, water-soluble tetrazolium salt assay. Conditions: Homo sapiens, Mel202, read-out: EC50, inhibition of proliferation (viability).
Protocol: Cells were cultured at 37.0 in 5% CO2. […] Cell lines were grown in RPMI 1640 medium (Life Technologies, Carlsbad, Calif.) supplemented with 10% FBS and antibiotics. Cell viability was measured using a water-soluble tetrazolium salt, WTS-8 (Bimake, Houston, Tex.), following the manufacturer's protocol. Flow cytometry for analysis of cell proliferation and apoptosis was performed at the Siteman Cancer Center Flow Cytometry Core on a FACScan analyzer (BD Biosciences, San Diego Calif., USA) using a standard propidium iodide staining protocol as described previously (44).
For data set [5], the target named is T1, wild type Gα13 with Gβγ2 (Homo sapiens, UniProt Q14344).
T1 construct: expressed in transfected cells; host or cells: HEK-293
In words: Split luciferase complementation, Gα interaction with Gβγ2. In kind it is cell-based. Conditions: FIG. 1A. The text has this: (§1) (FIG. 1A-1C) depicts the effect of FR on the activity state of Gα subunits as determined by interaction with Gβγ or RGS domains in split luciferase complementation assays. FIG. 1A Effect of FR on interaction of Gβγ2 with the indicated wild type (WT) or mutant constitutively active (Q/L) forms of Gα (q) or Gα13 (13). * p<0.01; ** p<0.05. FIG. 1B Potency of FR as a driver of interaction of Gβγ2 with wild type or mutant constitutively active Gαq. FIG. 1C Potency of FR as inhibitor of interaction of RGS2 with mutant constitutively active (Q/L) Gαq, or interaction of the RGS domain of LARG (LARG-RGS) with mutant constitutively active Gα13. FIG. 1D Potency of FR as inhibitor of signal transduction by constitutively active Gαq or Gα13 detected with an SRE(L) promoter-driven transcriptional reporter. Constitutively active Gαq (Q/L), constitutively active Gαq bearing the indicated FR binding site mutations, and constitutively Gα13 (Q/L) were studied.
(§2) To detect protein-protein interactions, a split luciferase complementation assays was used (23), as employed to study activation state-dependent interaction between Gα subunits and cognate binding partners (24).
(§3) Split luciferase assays were performed as described (24). The N-terminal portion of click beetle green luciferase (CBGN) was inserted into the αB-αC loop within the helical domain of wild type (WT) and constitutively active (Q/L) mutant forms of Gα and Gα13. Insertion of foreign proteins at this site preserves Gαfunction (40). The C-terminal region of click beetle green luciferase (CBGC) was fused to the N-termini of G131 (which was co-expressed with untagged Gγ2), RGS2, and the RGS domain of LARG, which interacts with Gal 3 only in the active GTP-bound state (41). HEK-293 cells transiently transfected with various combinations of tagged proteins were treated 18 h with vehicle(DMSO) or FR and luciferase assays were performed to measure reconstituted luciferase activity.

The target of data set [6] is T2, wild type Gαq interacting with Gβγ2 (Homo sapiens, UniProt P50148).
T2 construct: expressed in transfected cells; host or cells: HEK-293
Described as above. The format is cell-based. The settings on record: HEK-293 cells, 18 h, FIG. 1B, read-out: EC50, increase of split luciferase complementation.
Excerpt: as §1, §2, §3

Data set [7] concerns the target T3, constitutively active Gα13 with Gβγ2 (Homo sapiens, UniProt Q14344, Q226L).
T3 construct: expressed in transfected cells; host or cells: HEK-293
T3 sequence (Q14344 1-377 Q226L): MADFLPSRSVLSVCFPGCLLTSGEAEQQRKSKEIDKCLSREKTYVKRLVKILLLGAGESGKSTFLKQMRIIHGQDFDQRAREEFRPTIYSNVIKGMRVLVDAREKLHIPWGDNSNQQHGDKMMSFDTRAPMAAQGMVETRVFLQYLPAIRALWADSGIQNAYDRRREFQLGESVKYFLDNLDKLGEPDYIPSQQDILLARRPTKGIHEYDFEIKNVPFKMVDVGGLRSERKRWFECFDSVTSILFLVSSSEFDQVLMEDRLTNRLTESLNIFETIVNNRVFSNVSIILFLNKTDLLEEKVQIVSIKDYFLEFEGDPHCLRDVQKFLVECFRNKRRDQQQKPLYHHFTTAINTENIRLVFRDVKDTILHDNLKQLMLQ
Described as above. The format is cell-based. Conditions: FIG. 1A.
Excerpt: as §1, §2, §3

In data set [8] the test system is 92.1 UM cells. The data set can be described thus: RNA-Seq global gene expression, FR vs vehicle. In kind it is cell-based, Human. The settings on record: 92.1 cells, 100 nM FR, p<0.001.
The test system of data set [9] is 92.1 cells. The data set can be described thus: Melanocytic re-differentiation (morphology, pigmentation, immunostaining). In kind it is cell-based, Human. The procedure: FIG. 5A Morphological changes elicited by FR. UM cell lines were treated 3 d with FR and imaged by phase contrast microscopy. FR caused UM cells driven by constitutively active Gαq (92.1 and Mel202) to lose their characteristic spindle shaped and assume a stellate shape with multiple projections. FR had no effect on BRAF-driven UM cells (OCM-1A). FIG. 5B Melanocytic differentiation of FR-treated UM cells indicated by pigmentation. UM cell lines were treated 3 d with FR. Cells were pelleted and examined macroscopically. […] Scale bar=50 μm.
Gαq-mutant 92.1 UM cells were treated with FR or vehicle, and RNA was collected 1 and 3 d after treatment for RNA-Seq analysis. FIG. 7A Unsupervised principal component analysis identified FR treatment and time in culture as the two main separable factors contributing to changes in gene expression. […] FIG. 7D FR-repressed genes identified as targets of the polycomb repressive complex 2 by Geneset enrichment analysis. FIG. 7E The Ezh1/2 inhibitor GSK503 blocks the morphological differentiation elicited by FR. 92.1 UM cells were treated 7 d with GSK503 and 3 d with FR and then imaged by phase contrast microscopy. […] 92.1 cells were treated 7 d with GSK503 and 3 d with FR and pelleted. FIG. 7G PRC2 inhibition by GSK503.
Cell fixation was carried out by adding an equal volume of 2×fixative (PBS with 4% paraformaldehyde and 0.4% glutaraldehyde) to UM cells in RPMI growth medium. After 15 min at 37° C., cells were permeabilized with 0.1% Triton X-100 in PBS for 5 min, washed with PBS, and blocked with 2% fish gelatin (Sigma-Aldrich) in PBS. Primary and secondary antibodies were diluted in 2% fish gelatin in PBS. Primary antibodies included mouse monoclonal anti-pre-melanosomal protein (One World Lab, San Diego, Calif.), rabbit polyclonal anti-tyrosinase (One World Lab), rabbit polyclonal anti-dopachrome tautomerase (One World Lab), rabbit polyclonal anti-S100 (DakoCytomation, Denmark), and mouse monoclonal anti-BrdU (Life Technologies). Secondary antibodies were Alexa-fluor conjugates (Life Technologies), and the mounting agent was ProLong Gold (Life Technologies). Cell morphology was assessed by phase contrast imaging with an inverted microscope (Olympus IX72) using a 10×objective.

T2 sequence (P50148 whole entry): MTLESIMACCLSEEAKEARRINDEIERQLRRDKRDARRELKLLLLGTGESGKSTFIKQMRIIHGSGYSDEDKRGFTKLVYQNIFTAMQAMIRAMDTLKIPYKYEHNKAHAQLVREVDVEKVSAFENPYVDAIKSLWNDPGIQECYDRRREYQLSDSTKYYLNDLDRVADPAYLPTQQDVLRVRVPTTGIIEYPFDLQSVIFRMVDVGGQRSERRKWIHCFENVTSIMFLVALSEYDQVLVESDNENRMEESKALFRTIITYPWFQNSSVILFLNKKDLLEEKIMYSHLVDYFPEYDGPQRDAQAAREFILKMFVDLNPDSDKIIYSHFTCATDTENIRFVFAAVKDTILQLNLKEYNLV
T2 sequence (P59768 2-68, further chain): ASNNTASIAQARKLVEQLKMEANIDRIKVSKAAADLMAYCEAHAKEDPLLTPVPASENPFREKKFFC
T2 sequence (P62873 whole entry, further chain): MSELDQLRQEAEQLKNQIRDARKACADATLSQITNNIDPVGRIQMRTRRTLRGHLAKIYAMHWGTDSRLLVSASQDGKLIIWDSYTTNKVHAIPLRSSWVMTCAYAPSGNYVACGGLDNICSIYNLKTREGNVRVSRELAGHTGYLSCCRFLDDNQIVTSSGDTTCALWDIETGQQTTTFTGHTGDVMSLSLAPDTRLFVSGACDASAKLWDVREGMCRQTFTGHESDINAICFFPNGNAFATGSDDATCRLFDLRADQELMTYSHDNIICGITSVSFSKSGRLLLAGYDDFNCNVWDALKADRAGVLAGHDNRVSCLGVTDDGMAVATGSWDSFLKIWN
T1 sequence (P59768 2-68): as the sequence (P59768 2-68, further chain) above
T1 sequence (Q14344 whole entry): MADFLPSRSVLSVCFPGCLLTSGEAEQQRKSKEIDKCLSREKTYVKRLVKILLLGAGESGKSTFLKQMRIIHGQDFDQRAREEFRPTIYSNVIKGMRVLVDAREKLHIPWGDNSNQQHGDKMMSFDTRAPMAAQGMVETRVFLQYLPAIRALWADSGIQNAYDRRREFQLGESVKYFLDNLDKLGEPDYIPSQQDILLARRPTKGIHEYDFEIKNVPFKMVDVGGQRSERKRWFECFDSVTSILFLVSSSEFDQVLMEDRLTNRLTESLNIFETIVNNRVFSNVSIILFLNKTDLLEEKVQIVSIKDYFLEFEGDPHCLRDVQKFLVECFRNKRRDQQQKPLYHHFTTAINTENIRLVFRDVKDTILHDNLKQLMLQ
T1 sequence (P62873 whole entry, further chain): as the sequence (P62873 whole entry, further chain) above

For the compound `C=C1C(=O)N[C@@H](C)C(=O)N(C)[C@@H](C)C(=O)N[C@H]([C@@H](OC(=O)[C@@H](NC(=O)CC)[C@H](O)C(C)C)C(C)C)C(=O)N(C)[C@@H]([C@H](C)OC)C(=O)O[C@H](C(C)C)[C@H](NC(C)=O)C(=O)O[C@H](Cc2ccccc2)C(=O)N1C` [FR, [(1S)-1-[(3S,6R,9S,12S,18R,21S,22R)-21-acetamido-18-benzyl-3-[(1S)-1-methoxyethyl]-4,9,10,12,16-pentamethyl-15-methylidene-2,5,8,11,14,17,20-heptaoxo-22-propan-2-yl-1,19-dioxa-4,7,10,13,16-pentazacyclodocos-6-yl]-2-methylpropyl] (2S,3R)-3-hydroxy-4-methyl-2-(propanoylamino)pentanoate] (Ac-[X1][dPhLac][NMeDha]A[NMeA][X2](Leu(3R-OH,Nα-propionyl))[NMeaThr](Me); ester 1-C), in data set [1], the “fold less potent than toward Gαi/q, nucleotide exchange” value was about 10 fold. Moreover, the retina structure entry in data set [2] is listed as “preserves retina structure”. The “in vitro nucleotide exchange” value in data set [3] is “inhibited”. The EC50 in data set [4] came to 6 nM. In data set [5], the “effect on interaction with Gβγ2” value was “lack of effect”. The EC50 in data set [6] was determined as 3 nM. Besides, the “effect on interaction with Gβγ2” value in data set [7] is listed as “lack of effect”. Also, in data set [8], the BBC3/PUMA expression decrease amounted to 3.5 fold; the PMAIP1/NOXA expression decrease is on record as 2.5 fold; the “p21CIP1 (CDKN1A) expression, down” value is listed as 3.0 fold. Further, the “cell morphology (phase contrast)” value in data set [9] (3 d FR, FIG. 5A) is “morphological changes indicative of re-differentiation”. Besides, in [9] (3 d FR, FIG. 5B), the melanocytic pigmentation result is recorded as “strikingly increased”. In addition, in [9] (FIG. 5C), the “expression levels of TYR, DCT and PMEL (immunofluorescence)” value is reported as “increased”.
